Measured values from patent US9029384B2, “Phosphatidylinositol 3-kinase inhibitors” (Gilead Calistoga LLC, priority 2012, dated 2015).

Columns and labels:
[1] = biological target: T1, PI3Kδ (Homo sapiens, UniProt O00329); assay: Enzymatic activity of PI3K isoforms, TR-FRET assay (PIP3 formation); assay type: biochemical; settings: PI3Kδ; TR-FRET, 2×Km ATP, 10 μM PIP2; read-out: IC50
T1 construct: made in house
From the text: Enzymatic Activity of PI3K Isoforms
The TR-FRET assay was used to monitor formation of the product 3,4,5-inositol triphosphate molecule (PIP3) as it competed with fluorescently labeled PIP3 for binding to the GRP-1 pleckstrin homology domain protein. An increase in […] product results in a decrease in TR-FRET signal as the labeled fluorophore is displaced from the GRP-1 protein binding site.
Class I PI3K isoforms were expressed and purified as heterodimeric recombinant proteins. All assay reagents and buffers for the TR-FRET assay were purchased from Millipore. […] After an assay reaction time of 30 minutes at 25° C., reactions were terminated with a final concentration of 10 mM EDTA, 10 nM labeled-PIP3, and 35 nM Europium labeled GRP-1 detector protein before reading TR-FRET on an Envision plate reader (Ex: 340 nm; Em: 615/665 nm; 100 μs delay and 500 μs read window).
Data are normalized based on a positive (1 uM wortmanin) and negative (DMSO) controls. The α, β, δ, and γ IC50 values were calculated from the fit of the dose-response curves to a four-parameter equation. IC50 are reported in units of nM.
IC50 values were obtained for all PI3K isoforms (α, β, δ, and γ), and Table 2 summarizes the IC50 data collected for PI3Kδ in this Example B1.

[2] = system: basophils; assay: Basophil activation in human whole blood (Flow2 CAST kit, CD63 positive cells); assay type: cell-based; settings: basophils activated with anti-FcεRI mAb or fMLP, geometric mean
Experimental: Effect on basophil activation was measured in human whole blood using the Flow2 CAST® kit (Buhlmann Laboratories AG, Baselstrasse, Switzerland) following the protocol provided by the manufacturer with minor modifications. Human whole blood was collected into K2-EDTA venipuncture tubes. Whole blood samples were treated with either DMSO (0.3% final) or a serial dilution of compounds in DMSO for 60 minutes at 37° C. Basophils were then activated either with anti-FcεRI mAb or with fMLP. To activate basophils using the anti-FcεRI mAb; 50 μl of whole blood was mixed with 110 μl of stimulation buffer (B-BAT-STB) and 20 μl of anti-FcεRI (B-BAT-STCON). To activate basophils with fMLP; 50 μl of whole blood was mixed with 80 μl of stimulation buffer (B-BAT-STB) and 50 μl of fMLP (B-CCR-FMLP). Stimulation buffer was used as a negative control. 20 μl of the staining reagent (combination of anti-human CD63-FITC and anti-human CCR3-PE mAbs) was then added to each tube. […] Subsequently, erythrocytes were lysed and fixed by the addition of 2 ml of lysing solution (B-BAT-LYR) for 10 min at room temperature. Cells were pelleted by centrifugation at 1200 rpm for 10 min at room temperature in a swing-out rotor. Supernatant was aspirated and cell pellet resuspended in 400 μl of wash buffer. Flow cytometric analysis of the basophil activation was performed on a FC500MPL flow cytometer (Beckman Coulter Inc., Fullerton, Calif.). CCR3-staining and side scatter were applied to gate at least 200 basophils that expressed a high density of CCR3. The percent CD63 positive cells within the gated basophil population were determined in different treatment groups and normalized to the vehicle control (0.3% DMSO) with anti-FcεRI mAb of fMLP stimulus as 100%. Final compound concentration was adjusted to correct for dilution effect of added reagents. The EC50 values were calculated from the analysis of the dose-response curves to a four-parameter equation. All EC50 values represent geometric mean values and are reported in units of nM.

T1 sequence (O00329 whole entry, canonical isoform): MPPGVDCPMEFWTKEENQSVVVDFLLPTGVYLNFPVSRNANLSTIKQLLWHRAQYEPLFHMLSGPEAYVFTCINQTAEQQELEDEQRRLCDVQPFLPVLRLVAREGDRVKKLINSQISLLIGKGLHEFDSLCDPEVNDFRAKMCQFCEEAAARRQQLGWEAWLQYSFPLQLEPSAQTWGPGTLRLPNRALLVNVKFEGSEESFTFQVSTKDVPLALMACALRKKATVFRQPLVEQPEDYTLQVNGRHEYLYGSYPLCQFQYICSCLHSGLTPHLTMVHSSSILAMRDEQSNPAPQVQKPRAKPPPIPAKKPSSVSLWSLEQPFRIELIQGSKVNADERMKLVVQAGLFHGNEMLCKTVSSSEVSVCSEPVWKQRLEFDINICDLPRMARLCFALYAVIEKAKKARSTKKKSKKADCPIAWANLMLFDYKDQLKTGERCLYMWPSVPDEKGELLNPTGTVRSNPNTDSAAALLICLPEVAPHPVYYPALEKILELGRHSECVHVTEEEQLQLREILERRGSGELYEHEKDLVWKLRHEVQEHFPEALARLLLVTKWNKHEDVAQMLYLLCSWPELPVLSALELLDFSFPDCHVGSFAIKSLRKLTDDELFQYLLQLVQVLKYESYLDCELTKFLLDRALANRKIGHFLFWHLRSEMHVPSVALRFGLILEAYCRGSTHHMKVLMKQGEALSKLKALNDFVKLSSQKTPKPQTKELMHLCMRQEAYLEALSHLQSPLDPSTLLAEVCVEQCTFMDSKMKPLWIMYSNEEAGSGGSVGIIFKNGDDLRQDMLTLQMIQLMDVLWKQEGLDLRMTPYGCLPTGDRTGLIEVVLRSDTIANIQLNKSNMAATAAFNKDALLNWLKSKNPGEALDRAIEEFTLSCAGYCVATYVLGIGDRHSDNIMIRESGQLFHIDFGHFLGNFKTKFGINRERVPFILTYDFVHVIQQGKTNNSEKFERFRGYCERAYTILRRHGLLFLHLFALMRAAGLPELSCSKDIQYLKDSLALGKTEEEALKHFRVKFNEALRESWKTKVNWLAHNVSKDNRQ
T1 sequence (P27986 whole entry partner, canonical isoform): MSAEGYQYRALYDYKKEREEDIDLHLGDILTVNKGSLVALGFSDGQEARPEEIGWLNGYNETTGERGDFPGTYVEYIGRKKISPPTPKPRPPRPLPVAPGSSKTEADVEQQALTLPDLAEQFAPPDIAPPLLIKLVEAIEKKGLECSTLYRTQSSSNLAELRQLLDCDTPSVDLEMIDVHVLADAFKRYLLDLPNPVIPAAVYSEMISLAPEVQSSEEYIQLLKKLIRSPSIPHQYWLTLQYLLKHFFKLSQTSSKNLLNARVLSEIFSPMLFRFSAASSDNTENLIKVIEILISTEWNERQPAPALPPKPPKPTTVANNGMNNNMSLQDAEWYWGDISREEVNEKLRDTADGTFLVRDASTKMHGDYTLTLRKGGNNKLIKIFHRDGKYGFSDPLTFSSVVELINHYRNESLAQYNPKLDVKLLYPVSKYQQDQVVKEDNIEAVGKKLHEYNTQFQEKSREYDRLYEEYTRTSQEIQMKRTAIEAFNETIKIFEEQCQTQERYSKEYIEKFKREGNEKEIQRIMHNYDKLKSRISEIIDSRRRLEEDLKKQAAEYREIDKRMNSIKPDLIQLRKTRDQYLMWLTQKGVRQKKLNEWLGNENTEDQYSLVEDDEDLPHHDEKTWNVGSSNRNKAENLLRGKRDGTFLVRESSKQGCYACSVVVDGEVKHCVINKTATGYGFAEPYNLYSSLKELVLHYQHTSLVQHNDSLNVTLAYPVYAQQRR

Row | Compound | IC50 [1] [nM] | EC50 [2] [nM] | EC50 ([2]; Homo sapiens) [nM]
1 | CC(Nc1nc(N)nc(N)c1C#N)c1nc2c(F)cc(F)cc2c(=O)n1-c1cc(F)cc(F)c1 (single isomer, unassigned) [Compound 70a] | 10 to 50 | – | 1 to 10
2 | Cc1c(C(F)F)cccc1-n1c(C(C)Nc2nc(N)nc(N)c2C#N)nc2cccc(Cl)c2c1=O (single isomer, unassigned) [Compound 189a-1] | 10 to 50 | > 50 | –
3 | COc1ccc(C)c(-n2c(C(C)Nc3nc(N)nc(N)c3C#N)nc3cccc(Cl)c3c2=O)c1 (single isomer, unassigned) [Compound 187a-2] | 1 to 10 | 1 to 10 | –
4 | CC(Nc1nc(N)nc(N)c1C#N)c1nc2cccc(S(C)(=O)=O)c2c(=O)n1-c1ccccc1F (single isomer, unassigned) [Compound 142a-2] | 1 to 10 | 10 to 50 | –
5 | CC(Nc1nc(N)nc(N)c1C#N)c1nc2cccc(Cl)c2c(=O)n1-c1cc(C(F)F)cc(C(F)F)c1 (single isomer, unassigned) [Compound 137a] | 1 to 10 | 10 to 50 | –
6 | COc1cccc2nc(C(C)Nc3nc(N)nc(N)c3C#N)n(-c3ccccc3)c(=O)c12 (single isomer, unassigned) [Compound 111a] | 10 to 50 | – | > 50
7 | Cc1cccc(-n2c(C(C)Nc3nc(N)nc(N)c3C#N)nc3cccc(Cl)c3c2=O)c1C (single isomer, unassigned) [Compound 202a-2] | 10 to 50 | > 50 | –
8 | CC(C)CC(Nc1nc(N)nc(N)c1C#N)c1nc2cccc(Cl)c2c(=O)n1-c1cccc(F)c1 (single isomer, unassigned) [Compound 168a] | 1 to 10 | – | > 50
9 | CC(Nc1nc(N)nc(N)c1C#N)c1nc2cccc(C(N)=O)c2c(=O)n1-c1ccccc1 (single isomer, unassigned) [Compound 92a] | 1 to 10 | – | > 50
10 | CC(Nc1nc(N)nc(N)c1C#N)c1nc2ccc(F)cc2c(=O)n1-c1cccc(Cl)c1 (single isomer, unassigned) [Compound 14a] | 1 to 10 | – | 1 to 10
11 | Cc1c(F)ccc(-n2c(C(C)Nc3nc(N)nc(N)c3C#N)nc3cccc(Cl)c3c2=O)c1C (single isomer, unassigned) [Compound 203a-1] | 1 to 10 | > 50 | –
12 | COc1cc(F)cc(-n2c(C(C)Nc3nc(N)nc(N)c3C#N)nc3cccc(Cl)c3c2=O)c1 (single isomer, unassigned) [Compound 205a] | 1 to 10 | < 1 | –
13 | Cc1c(F)cc(F)cc1-n1c(C(C)Nc2nc(N)nc(N)c2C#N)nc2cccc(Cl)c2c1=O (single isomer, unassigned) [Compound 200a-2] | 10 to 50 | 1 to 10 | –
14 | CC(Nc1nc(N)nc(N)c1C#N)c1nc2cccc(C#N)c2c(=O)n1-c1ccccc1 (single isomer, unassigned) [Compound 7a] | 1 to 10 | – | < 1
15 | CC(Nc1nc(N)nc(N)c1C#N)c1nc2c(C#N)cc(F)cc2c(=O)n1-c1cc(F)cc(F)c1 (single isomer, unassigned) [Compound 161a] | 10 to 50 | – | 10 to 50
16 | CC(C)C(Nc1nc(N)nc(N)c1C#N)c1nc2cccc(Cl)c2c(=O)n1-c1cc(F)cc(F)c1 (single isomer, unassigned) [Compound 198a] | 1 to 10 | – | 1 to 10
17 | CC(Nc1nc(N)nc(N)c1C#N)c1nc2c(F)ccc(C#N)c2c(=O)n1-c1ccccc1 (single isomer, unassigned) [Compound 124a] | 1 to 10 | – | 1 to 10
18 | CC(Nc1nc(N)nc(N)c1F)c1nc2cccc(Cl)c2c(=O)n1-c1ccccc1 (single isomer, unassigned) [Compound 194a] | > 50 | > 50 | –
19 | CC(Nc1nc(N)nc(N)c1C#N)c1nc2cccc(S(C)(=O)=O)c2c(=O)n1-c1cccc(C(F)F)c1 (single isomer, unassigned) [Compound 116a] | 1 to 10 | – | > 50
20 | CC(Nc1nc(N)nc(N)c1C#N)c1nc2c(F)cccc2c(=O)n1-c1ccccc1 (single isomer, unassigned) [Compound 58a] | 1 to 10 | – | 1 to 10
21 | CC(Nc1nc(N)nc(N)c1C#N)c1nc2cccc(S(C)(=O)=O)c2c(=O)n1-c1ccccc1 (single isomer, unassigned) [Compound 95a] | 1 to 10 | – | 10 to 50
22 | CC(Nc1nc(N)nc(N)c1C#N)c1nc2cccc(Cl)c2c(=O)n1-c1cc(Cl)cc(C(F)F)c1 (single isomer, unassigned) [Compound 115a] | 1 to 10 | – | 10 to 50
23 | CC(Nc1nc(N)nc(N)c1C#N)c1nc2c(F)ccc(F)c2c(=O)n1-c1cccc(F)c1 (single isomer, unassigned) [Compound 148a] | 1 to 10 | – | < 1

The remaining lines, values ahead:

Row | IC50 [1] [nM] | EC50 [2] [nM] | EC50 ([2]; Homo sapiens) [nM] | Compound
24 | 1 to 10 | > 50 | – | Cc1c(F)cccc1-n1c(C(C)Nc2nc(N)nc(N)c2C#N)nc2cccc(Cl)c2c1=O (single isomer, unassigned) [Compound 199a-2]
25 | 1 to 10 | – | < 1 | CC(Nc1nc(N)nc(N)c1C#N)c1nc2cccc(F)c2c(=O)n1-c1ccccc1 (single isomer, unassigned) [Compound 81a]
26 | < 1 | 1 to 10 | – | Cc1c(C(F)F)cccc1-n1c(C(C)Nc2nc(N)nc(N)c2C#N)nc2cccc(Cl)c2c1=O (single isomer, unassigned) [Compound 189a-2]
27 | < 1 | – | 1 to 10 | CC(Nc1nc(N)nc(N)c1C#N)c1nc2c(F)ccc(F)c2c(=O)n1-c1ccccc1 (single isomer, unassigned) [Compound 59a]
28 | < 1 | < 1 | – | COc1cccc(-n2c(C(C)Nc3nc(N)nc(N)c3C#N)nc3cccc(Cl)c3c2=O)c1 (single isomer, unassigned) [Compound 206a]
29 | 1 to 10 | – | > 50 | CC(Nc1nc(N)nc(N)c1C#N)c1nc2cccc(Cl)c2c(=O)n1-c1cc(F)cc(C(F)(F)F)c1 (single isomer, unassigned) [Compound 45a]
30 | 1 to 10 | – | > 50 | CC[C@H](C)[C@H](Nc1nc(N)nc(N)c1C#N)c1nc2cccc(Cl)c2c(=O)n1-c1cc(F)cc(F)c1 [Compound 164a, 2,4-diamino-6-(((1S,2S)-1-(5-chloro-3-(3,5-difluorophenyl)-4-oxo-3,4-dihydroquinazolin-2-yl)-2-methylbutyl)amino)pyrimidine-5-carbonitrile]
31 | < 1 | 1 to 10 | – | Cc1cccc(-n2c(C(C)Nc3nc(N)nc(N)c3C#N)nc3cccc(Cl)c3c2=O)c1C (single isomer, unassigned) [Compound 202a-1]
32 | < 1 | – | > 50 | Cc1cccc2c(=O)n(-c3cccc(Cl)c3)c(C(C)Nc3nc(N)nc(N)c3C#N)nc12 (single isomer, unassigned) [Compound 6a]
33 | < 1 | – | 1 to 10 | Cc1ccc(F)c2nc(C(C)Nc3nc(N)nc(N)c3C#N)n(-c3cccc(C#N)c3)c(=O)c12 (single isomer, unassigned) [Compound 64a]
34 | < 1 | – | < 1 | Cc1ccc(F)cc1-n1c(C(C)Nc2nc(N)nc(N)c2C#N)nc2cccc(Cl)c2c1=O (single isomer, unassigned) [Compound 201a-1]
35 | < 1 | – | < 1 | Cc1ccc(F)c2nc(C(C)Nc3nc(N)nc(N)c3C#N)n(-c3ccccc3)c(=O)c12 (single isomer, unassigned) [Compound 60a]
36 | < 1 | – | < 1 | CC(Nc1nc(N)nc(N)c1C#N)c1nc2cccc(C(F)F)c2c(=O)n1-c1ccccc1 (single isomer, unassigned) [Compound 62a]
37 | < 1 | – | < 1 | CC(Nc1nc(N)nc(N)c1C#N)c1nc2cccc(Br)c2c(=O)n1-c1ccccc1 (single isomer, unassigned) [Compound 129a]
